Test results taken from patent US12035716B2, “Treatment for seeds disinfection” (VILMORIN & CIE, priority 2013, dated 2024).
Where two headings read alike, the source gives them in different places.

Test system: CGMMV
Experimental: Samples of two commercial cucumber seed lots naturally infected by CGMMV in the production field were treated by standard disinfection or by vacuum infiltration methods. All treatments were done on 1500 seed in 300 ml solution for 40 minutes, followed by 40 minutes wash under running water. For the standard disinfection we used 2.5% Na-Dichloroisocyanurate solution and for the vacuum infiltration we used a solution containing 1.5% Na-Dichloroisocyanurate. The vacuum/de vacuum cycles were applied gradually starting at 500 mbar and increased by 100 mbar each cycle up to the maximum of 985 mbar. Then we continued vacuum/de-vacuum cycles at maximum vacuum pressure of 985 mbar for a total of 30 cycles. At the end of the treatment the floating seeds were discarded and the heavy fraction was collected, washed and dried for testing.
CGMMV was tested by ELISA assay according to method 7-026 of the international rules for seed testing annex to chapter 7: seed health testing methods; International Seed Testing Association, Zurich, Switzerland, 2010. The germination test was performed on petri dishes (TOP) at 24 C incubator and root protrusion was counted at 4 days after seeding (TOP at 4 d).

[1] = seed lot A, VI disinfection 1.5%, heavy fraction
[2] = seed lot A, standard disinfection 2.5%
[3] = seed lot B, VI disinfection 1.5%, heavy fraction
[4] = seed lot B, standard disinfection 2.5%

Compound: O=c1nc([O-])n(Cl)c(=O)n1Cl.[Na+] [Na-Dichloroisocyanurate]
- ELISA 10 replicates results, Positive/total [1]: 0/10
- Remarks (seed health) [1]: Clean
- ELISA 10 replicates results, Average count (seed lot A, VI disinfection 1.5%, heavy fraction, cut-off 0.148, untreated 0.693): 0.072
- ELISA 10 replicates results, Positive/total [2]: 9/10
- Remarks (seed health) [2]: Contaminated
- ELISA 10 replicates results, Average count (seed lot A, standard disinfection 2.5%, cut-off 0.174, untreated 0.693): 0.238
- ELISA 10 replicates results, Positive/total [3]: 0/10
- Remarks (seed health) [3]: Clean
- ELISA 10 replicates results, Average count (seed lot B, VI disinfection 1.5%, heavy fraction, cut-off 0.148, untreated 0.737): 0.075
- ELISA 10 replicates results, Positive/total [4]: 4/10
- Remarks (seed health) [4]: Contaminated
- ELISA 10 replicates results, Average count (seed lot B, standard disinfection 2.5%, cut-off 0.156, untreated 0.737): 0.177
